Values joined by “and” are separate entries in the source; they are usually repeats but may differ in a detail not shown here. Identical values can stand only once. Toxic doses and inconclusive results are not listed. The calls were made as follows: active = survival T/C of 150% or more; inactive = T/C below 125% in these data. Non-standard residues stand in square brackets, D forms with d. Residues, ends and D or L forms follow the SMILES beside them. ξ: configuration not given here. ξF = NC(Cc1ccccc1)C(=O)O; Ac5c = NC1(C(=O)O)CCCC1
Tested on: CD2F1 mice, L1210 leukemia ip, survival T/C
Test: NCI In Vivo Anticancer Drug Screen. Data for tumor model L1210 Leukemia (intraperitoneal) in CD2F1 (CDF1) mice
Details: endpoint: mean survival time, higher = longer survival
How it was run: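 Each value reflects a quotient of treated over vehicle control outcomes in mice with a transplanted tumor.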

[1] = dose: 50.0 mg/kg/injection, schedule: Q01DX009 (ip), vehicle: saline with Tween-80
[2] = dose: 100.0 mg/kg/injection, schedule: Q01DX009 (ip), vehicle: saline with Tween-80
[3] = dose: 200.0 mg/kg/injection, schedule: Q01DX009 (ip), vehicle: saline with Tween-80
[4] = dose: 100.0 mg/kg/injection, schedule: Q01DX001 (ip), vehicle: saline
[5] = dose: 200.0 mg/kg/injection, schedule: Q01DX001 (ip), vehicle: saline
[6] = dose: 400.0 mg/kg/injection, schedule: Q01DX001 (ip), vehicle: saline
[7] = dose: 6.25 mg/kg/injection, schedule: Q01DX009 (ip), vehicle: Klucel (hydroxypropylcellulose) (HPC)
[8] = dose: 12.5 mg/kg/injection, schedule: Q01DX009 (ip), vehicle: Klucel (hydroxypropylcellulose) (HPC)
[9] = dose: 25.0 mg/kg/injection, schedule: Q01DX009 (ip), vehicle: Klucel (hydroxypropylcellulose) (HPC)

Measured: T/C

COc1ccc(-c2c(O)c3c(OC)cc(OC)cc3oc2=O)cc1
inactive: [1] 100 % of control | [2] 93 % of control | [3] 103 % of control

CN(C)N=Nc1ccc(Cl)cc1C(N)=O
inactive: dose: 18.8 mg/kg/injection, schedule: Q01DX009 (ip), vehicle: Klucel (hydroxypropylcellulose) (HPC) 93 % of control and 98 % of control | dose: 37.5 mg/kg/injection, schedule: Q01DX009 (ip), vehicle: Klucel (hydroxypropylcellulose) (HPC) 91 % of control and 95 % of control | dose: 75.0 mg/kg/injection, schedule: Q01DX009 (ip), vehicle: Klucel (hydroxypropylcellulose) (HPC) 91 % of control and 104 % of control | dose: 150.0 mg/kg/injection, schedule: Q01DX009 (ip), vehicle: Klucel (hydroxypropylcellulose) (HPC) 114 % of control

CC1OC(O)CC(NC(=O)C(F)(F)F)C1O (stereo not given)
inactive: dose: 25.0 mg/kg/injection, schedule: Q01DX005 (ip), vehicle: water 98 % of control | dose: 50.0 mg/kg/injection, schedule: Q01DX005 (ip), vehicle: water 95 % of control | dose: 100.0 mg/kg/injection, schedule: Q01DX005 (ip), vehicle: water 98 % of control | dose: 200.0 mg/kg/injection, schedule: Q01DX005 (ip), vehicle: water 107 % of control | dose: 400.0 mg/kg/injection, schedule: Q01DX005 (ip), vehicle: water 98 % of control

O=C(/C=C\c1ccc(O)c(O)c1)OC1C(O)CC(OC(=O)/C=C/c2ccc(O)c(O)c2)(C(=O)O)CC1O (stereo not given)
inactive: dose: 100.0 mg/kg/injection, schedule: Q04DX003 (ip), vehicle: saline 98 % of control | dose: 200.0 mg/kg/injection, schedule: Q04DX003 (ip), vehicle: saline 96 % of control | dose: 400.0 mg/kg/injection, schedule: Q04DX003 (ip), vehicle: saline 95 % of control

COc1cc(OC)c(NC(=O)Oc2ccc(SC)cc2)cc1Cl
inactive: dose: 12.5 mg/kg/injection, schedule: Q01DX009 (ip), vehicle: saline with Tween-80 94 % of control | dose: 25.0 mg/kg/injection, schedule: Q01DX009 (ip), vehicle: saline with Tween-80 97 % of control | [1] 97 % of control | [2] 88 % of control | [3] 92 % of control

Cc1ccccc1OS(=O)(=O)c1ccccc1
inactive: dose: 100.0 mg/kg/injection, schedule: Q01DX009 (ip), vehicle: acetone 98 % of control | dose: 100.0 mg/kg/injection, schedule: Q04DX003 (ip), vehicle: acetone 100 % of control | dose: 200.0 mg/kg/injection, schedule: Q01DX009 (ip), vehicle: acetone 98 % of control | dose: 200.0 mg/kg/injection, schedule: Q04DX003 (ip), vehicle: acetone 94 % of control | dose: 400.0 mg/kg/injection, schedule: Q01DX009 (ip), vehicle: acetone 96 % of control | dose: 400.0 mg/kg/injection, schedule: Q04DX003 (ip), vehicle: acetone 96 % of control

NC(Cc1ccccc1)C(=O)NC1(C(=O)O)CCCC1 (stereo not given) (H-[ξF]-[Ac5c]-OH)
inactive: dose: 50.0 mg/kg/injection, schedule: Q01DX009 (ip), vehicle: saline 100 % of control | dose: 100.0 mg/kg/injection, schedule: Q01DX009 (ip), vehicle: saline 107 % of control | dose: 200.0 mg/kg/injection, schedule: Q01DX009 (ip), vehicle: saline 107 % of control

CCN=C(N)/N=C(\N)C(Cl)(Cl)Cl
inactive: [4] 101 % of control | [5] 96 % of control | [6] 90 % of control

CCOC(=O)c1ncsc1NC(=O)NC
inactive: dose: 75.0 mg/kg/injection, schedule: Q01DX001 (ip), vehicle: saline 101 % of control | dose: 150.0 mg/kg/injection, schedule: Q01DX001 (ip), vehicle: saline 100 % of control

S=C(Nc1ccc(Cl)c(Cl)c1)SCc1ccc2c(c1)OCO2
inactive: dose: 18.7 mg/kg/injection, schedule: Q01DX009 (ip), vehicle: suspension in saline 107 % of control | dose: 37.5 mg/kg/injection, schedule: Q01DX009 (ip), vehicle: suspension in saline 108 % of control | dose: 75.0 mg/kg/injection, schedule: Q01DX009 (ip), vehicle: suspension in saline 107 % of control | dose: 150.0 mg/kg/injection, schedule: Q01DX009 (ip), vehicle: suspension in saline 111 % of control

CC1(C)CC(=O)C(CSC(=O)c2ccccc2)C(=O)C1
inactive: dose: 3.12 mg/kg/injection, schedule: Q01DX009 (ip), vehicle: Klucel (hydroxypropylcellulose) (HPC) 96 % of control and 100 % of control | [7] 101 % of control and 105 % of control | [8] 103 % of control and 104 % of control | [9] 100 % of control and 105 % of control | dose: 50.0 mg/kg/injection, schedule: Q01DX009 (ip), vehicle: Klucel (hydroxypropylcellulose) (HPC) 102 % of control and 106 % of control | dose: 100.0 mg/kg/injection, schedule: Q01DX009 (ip), vehicle: Klucel (hydroxypropylcellulose) (HPC) 102 % of control

O=C([O][Hg][C](F)(F)F)C(F)(F)F
inactive: dose: 6.25 mg/kg/injection, schedule: Q04DX003 (ip), vehicle: saline 98 % of control

CC1(O)CS(=O)(=O)CC1O (stereo not given)
inactive: [4] 105 % of control | [5] 103 % of control | [6] 101 % of control

Cc1ccc(S(=O)C(c2ccccc2)C(c2ccccc2)C(C)O)cc1 (stereo not given)
inactive: dose: 100.0 mg/kg/injection, schedule: Q04DX003 (ip), vehicle: saline with Tween-80 90 % of control | dose: 200.0 mg/kg/injection, schedule: Q04DX003 (ip), vehicle: saline with Tween-80 94 % of control | dose: 400.0 mg/kg/injection, schedule: Q04DX003 (ip), vehicle: saline with Tween-80 90 % of control

Nc1cccc(Oc2ccc([N+](=O)[O-])cc2)c1
inactive: dose: 100.0 mg/kg/injection, schedule: Q01DX001 (ip), vehicle: Klucel (hydroxypropylcellulose) (HPC) 97 % of control | dose: 200.0 mg/kg/injection, schedule: Q01DX001 (ip), vehicle: Klucel (hydroxypropylcellulose) (HPC) 97 % of control

c1ccc(-c2c3ccccc3c(-c3ccccc3)c3c2ccc2ccccc23)cc1
inactive: [7] 89 % of control | [8] 89 % of control | [9] 91 % of control

Cc1cc(O)c(C(C)C)cc1N(C)C (tested in a mixture with another compound)
inactive: dose: 0.13 mg/kg/injection, schedule: Q01DX009 (ip), vehicle: saline 100 % of control | dose: 0.25 mg/kg/injection, schedule: Q01DX009 (ip), vehicle: saline 106 % of control | dose: 0.25 mg/kg/injection, schedule: Q04DX003 (ip), vehicle: saline 110 % of control | dose: 0.5 mg/kg/injection, schedule: Q01DX001 (ip), vehicle: saline 97 % of control | dose: 0.5 mg/kg/injection, schedule: Q01DX009 (ip), vehicle: saline 93 % of control | dose: 0.5 mg/kg/injection, schedule: Q04DX003 (ip), vehicle: saline 87 % of control | dose: 1.0 mg/kg/injection, schedule: Q01DX001 (ip), vehicle: saline 97 % of control

Cc1cccc[n+]1CC[n+]1ccccc1C
inactive: [4] 100 % of control | [5] 101 % of control
